Experiments:
[1] = tested on: MCF-7 breast cancer cells; experiment: cells; type: cell-based; details: Homo sapiens, MCF7, 72 h, read-out: IC50 against MCF-7 breast cancer cells
[2] = tested on: NCI-H460; details: read-out: IC50 NCI-H460; cited from earlier work
[3] = tested on: SUIT2, MIA PaCa-2 and MDA-MB-231 cell lines; experiment: cells; type: cell-based; details: read-out: IC50 values (range)
[4] = tested on: HCT-15; details: read-out: IC50 HCT-15; cited from earlier work
[5] = tested on: MIA PaCa-2/GemLuc cells; type: cell-based
[6] = tested on: patient-derived PDAC organoids; type: cell-based, human

Q: Which IC50 [1] does the source give for C[C@]12CC[C@@H]3c4ccc(O)cc4CC[C@H]3[C@@H]1CCC2=O [estrone (5), Estrone] here?
A: Its IC50 is over 200000 nM.

Q: What does the source list for COc1ccc(/C=C\c2cc(OC)c(OC)c(OC)c2)cc1O [CA-4, combretastatin A4]?
A: IC50 [2]: 3 nM; IC50 [3]: 2.4 to 8.7 nM; IC50 [4]: 1.7 nM

Q: Which “cell cycle arrest (red S/G2/M bioluminescence)” value [5] does the source give for Cc1cc2cc(O)ccc2[nH]1 [Compound L01, 2-Methyl-1H-indol-5-ol] here?
A: Its value is “failed to elicit the same effect”.

Q: And the “antiproliferative activity against patient-derived PDAC organoids” value [6]?
A: Its value is “no antiproliferative activity”.
